From US20220339257A1, “METHODS TO INCREASE THE SENSITIVITY AND REVERSING THE RESISTANCE TO DRUGS” (Biomarker Strategies, LLC, priority 2019, published 2022)

B1: interferon-alpha-1 (protein, UniProt P01562 24-189, looked up)
Interferon alpha-1/13: CDLPETHSLDNRRTLMLLAQMSRISPSSCLMDRHDFGFPQEEFDGNQFQKAPAISVLHELIQQIFNLFTTKDSSAAWDEDLLDKFCTELYQQLNDLEACVMQEERVGETPLMNADSILAVKKYFRRITLYLTEKKYSPCAWEVVRAEIMRSLSLSTNLQERLRRKE
notes: enhancer molecule, cytokine purchased from Sigma

Test system: Ca-922 cell line
Assay: HoPI live cell staining
Type: cell-based
Set-up: concentration or dose not given beside the values
Settings: 24 hours
Text: A double stain of Hoechst 33342 and propidium iodide allows for the determination of cell viability with high specificity and low background noise, as compared to trypan blue staining. Hoechst 33342 is a cell permeable blue fluorescent nuclear stain which will stain all cell types. Propidium iodide is a cell impermeable red fluorescent nuclear stain that will only bind to the nuclei of cells with compromised membranes (dead cells). The staining can be performed rapidly on live cell suspensions within 15 minutes. 25 uL of 4× Hoechst 33342 Solution (40 ug/mL) and 25 uL of 4×Propidium Iodide Solution are added to 50 uL of cell suspension. The suspension was gently mixed 10 times and 50 uL was immediately transferred to a microfluidic cell counting chip. A 365 nm LED was used to excite both Hoechst 33342 and propidium iodide. Images of the cells were captured using a 10× objective lens on an Olympus microscope using a Canon EOS 6D camera using an ISO of 800 and an exposure of 2 seconds; both JPEG and RAW images were saved for analysis. The blue channel was used to measure the total number of cells and the red channel was used to measure the number of dead cells. Cell counting was performed automatically by the Image Pro software (Media Cybernetics, Inc).
MTA and EM effects on apoptosis were measured by Hoechst-Propidium Iodide staining (HoPI). For the assay, cells were seeded in 6-well plates at 400K cells per well, in 2 mL of 10% FBS-containing media and incubated for 24 hours. At 24 hours, a 1 nM to […] range of MTA and/or 1 ng/mL to 1 mg/mL range of EM doses was added and incubated for 24 hours. After 24 hours incubation respective cells' media was collected, added the 1× HBSS wash from the plate in the respective tube. Adherent cells were detached by treating with Accutase for 6 minutes and collected in respective tubes. All samples were centrifuged for 5 minutes at 1200 RPM. The cell pellets were resuspended in PBS and centrifuged again for 5 minutes at 1200 RPM. Cell pellets were resuspended in 200 uL of PBS and mixed properly to get single cell suspension. 50 uL of cell suspension was added into separate tubes having 10 uL of a 2× HOPI solution (20 ug/mL Hoechst 33342 and 20 ug/mL propidium iodide solution) to get a final concentration of Hoechst 33342 and propidium iodide to […]. Make up the volume to 100 uL with 40 uL of PBS. Samples were mixed thoroughly for even cell staining and the microfluidsic chip wells were each filled with 10 uL of sample. Chips were then incubated in the dark for 20 minutes. A 365 nm LED was used to excite both Hoechst 33342 and propidium iodide as they were visualize under a microscope. Cell images were captured using a 10× objective lens on an Olympus microscope using a Canon EOS 6D camera with an ISO of 800 and an exposure of 2 seconds; both JPEG and RAW images were saved for analysis. The blue channel was used to measure the total number of cells and the red channel was used to measure the number of dead cells. For image analysis, a copy of the image was created and converted directly into an 8-bit gray scale image. A threshold was placed on the image to create a binary mask; the threshold level was 20 intensity units out of 255 intensity units. Next, a particle analysis algorithm was applied to the binary mask and a set of cellular regions (between 100 to 800 cellular regions per image) was created. The original image was then split into red, green and blue channels. The area, mean intensity, standard deviation of the mean intensity, minimum intensity, maximum intensity and perimeter were measured for each cellular region in the red channel and also in the blue channel. The green channel was discarded. To discern between live and dead cells, the maximum intensity in the red channel was used with a threshold of 100 intensity units. Double plots were created using the intensity of the blue channel (X-axis) and the intensity of the red channel (Y-axis). […]

Molecule	reduction in the number of live cells (HoPI) (osimertinib and TNFa in combination) [%]	reduction in the number of live cells (HoPI) (single agent) [%]	reduction in the number of live cells (HoPI) (GSK458 and IFNa in combination) [%]
tumor necrosis factor-alpha [EM2]	67	21	
B1		24	26
